This is an account of results in ChEMBL document CHEMBL4312036, “Antiproliferative activity and mode of action analysis of novel amino and amido substituted phenantrene and naphtho[2,1-b]thiophene derivatives” (Eur J Med Chem, 2020).

By IC50 is commonly meant the midpoint of a concentration-inhibition curve.

The test system of one test is A549. As to the kind of experiment: Antiproliferative activity against human A549 cells incubated for 72 hrs by MTT assay. It counts as functional, cell-based. As to conditions: A549, 72 h. (Tetrazolium dyes change colour on reduction, which living cells bring about.)
In the next test the test system is SW-620. As to the kind of experiment: Antiproliferative activity against human SW620 cells incubated for 72 hrs by MTT assay. Format: functional, cell-based. To be noted: SW-620, 72 h.
The test system of test [1] is HepG2. As to the kind of experiment: cells. As to conditions: Homo sapiens, HepG2, 72 h.
Description: Antiproliferative activity against human HepG2 cells incubated for 72 hrs by MTT assay
The next test concerns HFF. The test can be described thus: Cytotoxicity against HFF cells assessed as reduction in cell viability incubated for 72 hrs by MTT assay. It counts as cell-based. As to conditions: Homo sapiens.
The next test relates to CFPAC-1. The test can be described thus: Antiproliferative activity against human CFPAC-1 cells incubated for 72 hrs by MTT assay. It counts as functional, cell-based. To be noted: CFPAC-1, 72 h.
Test [2] deals with HeLa. The test can be described thus: cells. To be noted: Homo sapiens, 72 h.
Description: Antiproliferative activity against human HeLa cells incubated for 72 hrs by MTT assay
The subject of test [3] is HeLa. As to the kind of experiment: Upregulation of HIF1 protein level in human HeLa cells at 2 times IC50 incubated for 48 hrs by Western blot analysis. It counts as functional, cell-based. In general terms: Immunoblotting shows a protein as a band on a membrane.
Test [4] has as its system HepG2. As to the kind of experiment: Downregulation of MEK1/2 protein level in human HepG2 cells at 2 times IC50 incubated for 72 hrs by Western blot analysis. Format: functional, cell-based.
For test [5], the system named is HeLa. The test can be described thus: Upregulation of HIF1 protein level in human HeLa cells at 2 times IC50 incubated for 72 hrs by Western blot analysis. It counts as functional, cell-based.
The test system of test [6] is HepG2. The test can be described thus: Upregulation of HIF1 protein level in human HepG2 cells at 2 times IC50 incubated for 72 hrs by Western blot analysis. It counts as functional, cell-based.
The subject of test [7] is HeLa. As to the kind of experiment: Downregulation of MEK1/2 protein level in human HeLa cells at 2 times IC50 incubated for 72 hrs by Western blot analysis. It counts as functional, cell-based.
In test [8] the test system is HeLa. As to the kind of experiment: Downregulation of MEK1/2 protein level in human HeLa cells at 2 times IC50 incubated for 48 hrs by Western blot analysis. It counts as functional, cell-based.

Structures are written as SMILES. The source made the active and inactive calls. No cut-off for these calls is given here.

With `N#Cc1cc2ccc(N3CCNCC3)cc2c2ccsc12`, the IC50 was 7.09 µM in the test with A549; 2.58 µM in the test on SW-620; 20.9 µM in the test with HepG2 [1]; 37.5 µM in the test on HFF; 3.66 µM in the test with CFPAC-1; 2.38 µM in the test on HeLa [2].

For `N#C/C(=C\c1ccc(C#N)cc1)c1cccs1`, the IC50 in the test on A549 is 47.7 µM; with SW-620, 61.4 µM; in the test on HepG2 [1] it was 0.3 µM; with HFF, more than 100 µM; in the test with CFPAC-1, 52.4 µM; in the test with HeLa [2] it was 0.21 µM. The result in the test with HeLa [3], in the test with HepG2 [4], in the test on HeLa [5], in the test on HepG2 [6] and with HeLa [7] was Active.

Turning to `N#Cc1ccc2cc(C#N)c3sccc3c2c1`, the IC50 is 5.53 µM in the test on A549; 6.04 µM in the test with SW-620; 7.22 µM in the test with HepG2 [1]; 5.13 µM in the test on HFF; 8.19 µM in the test on CFPAC-1; 0.45 µM in the test with HeLa [2].

As to `N#Cc1cc2ccc(N3CCNCC3)cc2c2ccccc12`, the IC50 in the test on A549 turned out to be 5.49 µM; in the test with SW-620, 4.62 µM; in the test on HepG2 [1] it was 19.4 µM; in the test with HFF, 23.8 µM; with CFPAC-1 it was 6.19 µM; with HeLa [2] it was 3.33 µM.

As for `N#Cc1cc2ccc(N3CCCCC3)cc2c2ccccc12`, the IC50 with A549 was 58.9 µM; in the test on SW-620, more than 100 µM; in the test on HepG2 [1] it was 81.8 µM; in the test on HFF it was more than 100 µM; in the test on CFPAC-1, more than 100 µM; with HeLa [2], 59.4 µM.

With `N#C/C(=C\c1ccc(C#N)cc1)c1ccccc1`, the IC50 worked out at 8.39 µM in the test on A549; 9.18 µM with SW-620; 0.52 µM with HepG2 [1]; 6.07 µM with HFF; 6.7 µM with CFPAC-1; 0.33 µM with HeLa [2]. Further, the outcome in the test with HeLa [3], in the test on HepG2 [4], in the test on HeLa [5], with HepG2 [6] and with HeLa [8] was Active.

As for `CC(C)CNc1ccc2cc(C#N)c3ccccc3c2c1`, the IC50 in the test on A549 was found to be 31.1 µM; with SW-620, 43.4 µM; with HepG2 [1], 33.6 µM; with HFF, 52.9 µM; with CFPAC-1 it was 35.5 µM; in the test on HeLa [2], 23.6 µM.

On to `CN(C)CCCNC(=O)c1cc2ccccc2c2ccsc12`, for which the IC50 in the test with A549 worked out at 20.2 µM; in the test with SW-620 it was 17.7 µM; in the test with HepG2 [1] it was 23.2 µM; in the test on HFF it was 24 µM; with CFPAC-1 it was 17.5 µM; in the test on HeLa [2], 14.4 µM.

Turning to `CC(C)CNc1ccc2cc(C#N)c3sccc3c2c1`, the IC50 in the test with A549 is 31 µM; in the test on SW-620 it was 41.5 µM; in the test on HepG2 [1], 47.6 µM; in the test on HFF, 98.4 µM; in the test with CFPAC-1 it was 18.6 µM; with HeLa [2], 18.6 µM.

In the case of `N#Cc1cc2ccc(F)cc2c2ccsc12`, the IC50 in the test with A549 came out at 49.9 µM; in the test on SW-620 it was 42.4 µM; in the test with HepG2 [1], 32.1 µM; with HFF it was 16.4 µM; in the test on CFPAC-1 it was 51 µM; in the test with HeLa [2], 11.6 µM.

For `N#C/C(=C\c1ccccc1)c1ccccc1`, the IC50 in the test with A549 is 64.6 µM; with SW-620, more than 100 µM; with HepG2 [1], 81.5 µM; in the test with HFF, 93.7 µM; with CFPAC-1, 88.2 µM; with HeLa [2] it was 48.9 µM.

Consider `N#C/C(=C\c1ccc(F)cc1)c1ccccc1`, for which the IC50 in the test on A549 was 45.8 µM; with SW-620 it was 38.5 µM; in the test with HepG2 [1], 7.73 µM; with HFF, 52.7 µM; with CFPAC-1, 46.9 µM; with HeLa [2] it was 3.44 µM.

On to `CC(C)CNC(=O)c1cc2ccccc2c2ccccc12`, for which the IC50 with A549 is 64.2 µM; in the test on SW-620 it was 61.3 µM; in the test on HepG2 [1], 93.4 µM; in the test on HFF, more than 100 µM; in the test with CFPAC-1, 68.6 µM; in the test with HeLa [2] it was 28.4 µM.

Consider `N#Cc1cc2ccc(F)cc2c2ccccc12`, for which the IC50 worked out at 9.57 µM in the test with A549; 7.8 µM in the test with SW-620; 18.3 µM with HepG2 [1]; 3.43 µM in the test with HFF; 13.2 µM with CFPAC-1; 8.31 µM in the test on HeLa [2].

With `CC(C)CNC(=O)c1ccc2cc(C(=O)NCC(C)C)c3sccc3c2c1`, the IC50 is 27.7 µM with A549; 0.9 µM with SW-620; 86.1 µM in the test on HepG2 [1]; 0.74 µM with HFF; more than 100 µM in the test with CFPAC-1; 10.8 µM in the test on HeLa [2].

Consider `CC(C)CNC(=O)c1cc2ccccc2c2ccsc12`, for which the IC50 in the test on A549 was 63.9 µM; with SW-620, more than 100 µM; with HepG2 [1], 75.4 µM; in the test with HFF, 96.8 µM; in the test with CFPAC-1 it was 97.5 µM; in the test with HeLa [2] it was 39.6 µM.

`N#C/C(=C\c1ccccc1)c1cccs1`: the 50% inhibitory concentration (IC50) in the test on A549 was 59 µM; in the test with SW-620, more than 100 µM; with HepG2 [1], 43.4 µM; in the test on HFF, 84.3 µM; with CFPAC-1 it was 97.8 µM; with HeLa [2], 20 µM.

Regarding `N#Cc1cc2ccc(N3CCCCC3)cc2c2ccsc12`, the IC50 stood at 61.3 µM with A549; 64.1 µM with SW-620; 62 µM with HepG2 [1]; 62 µM with HFF; 25.7 µM in the test on CFPAC-1; 32.2 µM with HeLa [2].

With `N#Cc1cc2ccccc2c2ccsc12`, the IC50 in the test on A549 worked out at 50.4 µM; in the test on SW-620, 70.3 µM; with HepG2 [1], 54.3 µM; in the test on HFF, 84.6 µM; in the test on CFPAC-1, 55.6 µM; with HeLa [2], 29.9 µM.

`N#C/C(=C\c1ccc(F)cc1)c1cccs1`: the half-inhibitory concentration (IC50) in the test with A549 was found to be 40.8 µM; with SW-620, 36.4 µM; in the test with HepG2 [1], 5.22 µM; with HFF it was 86.9 µM; in the test with CFPAC-1 it was 34.2 µM; in the test on HeLa [2], 3.59 µM.

Consider `N#Cc1ccc2cc(C#N)c3ccccc3c2c1`, for which the IC50 in the test on A549 was 3.3 µM; with SW-620 it was 6.8 µM; in the test on HepG2 [1] it was 10.8 µM; in the test with HFF, 1.78 µM; in the test on CFPAC-1, 8.2 µM; in the test on HeLa [2], 0.65 µM.

As to `CN(C)CCCNC(=O)c1ccc2cc(C(=O)NCCCN(C)C)c3sccc3c2c1`, the IC50 with A549 was 5.57 µM; with SW-620 it was 4.4 µM; in the test on HepG2 [1], 16.2 µM; with HFF, 5.83 µM; in the test on CFPAC-1, 6.59 µM; with HeLa [2] it was 4.21 µM.

As for `N#Cc1cc2ccccc2c2ccccc12`, the IC50 is 72.4 µM in the test with A549; more than 100 µM in the test on SW-620; 48.8 µM with HepG2 [1]; more than 100 µM in the test on HFF; 80 µM with CFPAC-1; 30.3 µM in the test with HeLa [2].
